Test results reported in US20200147038A1, “ASSESSING AND TREATING PSYCHEDELIC-[…]” (Eleusis Benefit Corporation, PBC, priority 2017, published 2020).
“And” between values parts separate entries of the source, which are not always exact repeats. Identical values can stand only once.

Experiments:
[1] = Retrospective online survey of psilocybin users (Example 2; 5D-ASC Mystical-OBN / Adverse-DED, long-term change); format: in vivo, human; settings: for Negative Change, Mean / Positive Change, Mean: 5-point scale, 3=no change; for Flourishing, Mean: 6-point scale; for Importance, Mean: slider scale 1 to 100
From the text: Participants were U.S. residents recruited through Amazon Mechanical Turk (MTurk; an online source in which individuals participate in survey studies for small cash compensation) who had ingested psilocybin within the past twelve months. The final screened sample consisted of 183 valid responses with 97 males (53.0%) and 85 females (46.4%) (1 missing), and an average age of 31.9 (SD=9.43) ranging from 18 to 70 years.
[…]. The six sections included background items, trait measures, prior state (i.e., life situation before psilocybin session), proximal state (i.e., emotions and motivation at ingestion), intrasession measures (i.e., the experience itself), and current state. Scaled items in all but the long-term outcomes used […] Likert scales ranging from 1=Strongly Disagree to 6=Strongly Agree. Open-ended questions designed to activate participants' relevant recollections were completed before responding to scale items related to prior state, proximal state, intrasession, and current status. Measures utilized in the regression models include the following;
Measures of intrasession experience based on items from six subscales of the 5D-ASC (Dittrich et al., A Pharmacopsychiatry 1998, 31:80; Studerus et al., PLoS ONE 2010, 5). Mystical-OBN used a mean of items measuring Oceanic Boundlessness (Studerus et al., PLoS ONE 2012, 7): “experience of unity”, “spiritual experience”, “blissful state”, and “insightfulness”. Adverse-DED was a mean of items associated with Dread of Ego Dissolution (Studerus et al., PLoS ONE 2012, 7): “impaired control and cognition”, and “anxiety.” Scores for Mystical-OBN ranged from 1-5.92 (M=3.87, SD=1.16; α=0.93), and scores for Adverse-DED ranged from 1-5.47 (M=2.25, SD=0.98, α=0.91).
Scale items measuring change based on pairs of adjectives adapted from Griffiths (2006). Individuals used a 5-point scale to indicate whether they had experienced a decrease, no change, or an increase in the characteristics. Positive change was calculated with the mean of nine items related to interpersonal traits, intrapersonal characteristics, and attitudes (Cronbach's α=0.929). Negative change was the mean of three items (α=0.883).
Analyses of the impact of mystical experience on long-term outcomes were conducted in two ways: (1) independent t-test comparisons of each long-term outcome based on a complete or not complete mystical experience, and (2) a path analysis of the mediating role of mystical experience on positive change.
Scores for importance were based on a slider scale ranging from 1 to 100. […] Flourishing was rated on a 6-point scale ranging from 1=strongly disagree to 6=strongly agree.

[2] = Retrospective online survey of individuals who had consumed psilocybin (Example 1; MEQ30, positive change); format: in vivo, human
Method: A retrospective survey study was conducted based on crowdsourced online data gathered from individuals who had volitionally consumed psilocybin within the past year. Data were collected about participants' traits and demographic background, and then individuals were primed to recall their life experience before, at the time of ingestion, during, and after the psilocybin before completing scales to measure hypothesized traits and states. Previously validated scales were used where available (e.g., Tellegen Absorption Scale, MEQ30), and new scales were developed and tested for traits and states without existing measures (mental barriers, identity distress, state of surrender). A hierarchical regression model was used to test the relationships, and a path analysis was conducted to test the mediating capacity of ME.
Participants were directed to the relevant webpage after reading informed consent text, completing screening and agreeing to participate in accordance with the stipulations of the Institutional Review Board. Scaled items in all but the long-term outcomes used 4-point Likert scales ranging from 1=Strongly Disagree to 4=Strongly Agree. Answers were required for each item, but each included an option “I prefer not to answer.”
Participants' experiences were measured in two pages on the survey. The first activated their recollection of the experience through an open-ended question asking them to describe their experience and specific fixed response questions about their experience, including whether their eyes were primarily open or closed and the extent to which they were talking or exposed to media with words during their experience. On the second page, subjects responded to […] intermixed items on a 4-point Likert scale from the Mystical Experience Questionnaire (MEQ30) and 36 items from the Sacred Emotions Scale (SES), measuring the extent to which they felt “exuberance” and “dread” during the experience.
The MEQ30 is a validated scale consisting of 30 items systematically validated and utilized in psychedelic studies. Some of the items from the MEQ30 were adapted for this study so that they were semantically consistent with the other scale (e.g., changed “I felt certain that I′d encountered ultimate reality” to “Certainty that I′d encountered ultimate reality”), and used a 4-point rather than a 7-point scale for reasons described above. The scale measures four dimensions of a mystical experience: (a) Mystical; 15 items with α=0.957, (b) Ineffability; 3 items with α=0.775, (c) Timelessness/Spacelessness; 6 items with α=0.844, and (d) Positive Affect; 6 items with α=0.851. The total scale produced Cronbach α=0.967. All of the reliability scores from this sample were similar to internal reliability scores produced in the norming sample (MacLean), which ranged from 0.831 to 0.936 for the four factors and 0.957 for the total scale.
Participants were asked to describe their current state in two pages. […] The second page offered 46 statements including 15 intermixed items adapted from the work of Griffiths et al., (Psychopharmacology 2006, 187:268-283) measuring
Data were collected on Amazon Mechanical Turk (MTurk), an online source in which individuals participate in survey studies for small cash compensation. […] Individuals who were registered as MTurk Workers from the U.S. indicated their interest by accepting the job or the “hit.” If individuals accepted the “hit,” they were directed to a screening page. If they passed those screening items, described below, they were given a link and password to the informed consent followed by the actual survey. • Screening
The mean number of correct attention items in the final sample was 11.5 of 12 (SD=1.02), and the mean for the non-selected group was 4.69 (SD=3.36) attention items answered correctly. The final sample consisted of 143 valid responses with 81 males and 62 females (43%), and an average age of 31.1 (SD=9.64), with ages ranging from 18 to 62 years. […]

[3] = Complete mystical experience, N=51
[4] = None/partial mystical experience, N=129

CN(C)CCc1c[nH]c2cccc(OP(=O)(O)O)c12 [psilocybin]
Adverse-DED score, mean ([1]; 5D-ASC Dread of Ego Dissolution items, whole sample (183)): 2.25
Mystical-OBN score, mean ([1]; 5D-ASC Oceanic Boundlessness items, whole sample (183)): 3.87
Negative Change, Mean [1, 3]: 2.22
Positive Change, Mean [1, 3]: 4.00
Flourishing, Mean [1, 3]: 4.78
Importance, Mean [1, 3]: 75.66
Negative Change, Mean [1, 4]: 2.75 and 2.74
Positive Change, Mean [1, 4]: 3.39
Flourishing, Mean [1, 4]: 4.39
Importance, Mean [1, 4]: 42.75
proportion meeting criteria for a complete ME ([2]; MEQ30, >2.5 of 4 on all four subscales, whole sample): 58%
proportion with a full ME, experienced psychedelic users ([2]; MEQ30, >2.5 of 4 on all subscales, experienced users, n=70): 63%
proportion with a full ME, novice users ([2]; MEQ30, >2.5 of 4 on all subscales, novice users, n=13): 42%
proportion reporting complete MEs, reanalysis with cut point of 3 ([2]; MEQ30, cut point 3 of 4 on all subscales): 45%
Positive Change, Mean ([2]; participants with Complete ME, N=83): 3.8348
Positive Change, Mean ([2]; participants with No/Incomplete ME, N=60): 3.2274
mean positive change score ([2]; whole sample (143 valid responses), higher scores = increases in positive emotions and decreases in negative emotions): 3.58 (SD=0.65)
